The data set can be described thus: recombinant barcode read abundance after kanamycin selection (control-corrected) (log10(CPM+1)); higher = more efficient recombination; sequences stand for … in AGTGCAGAGAAAATCGGCCAGTTTTCTCTGCCTGCAGTCCGCATGCCGT…AGATTTATGCAGCGGACTGCCTTTCTCCCAAAGTGATAAACCGGACAGTATCATGGACCGGTTTTCCCGGTAATCCGTATTTGCAAGGTTGGTTTCACT; site = the 11-nt target. In a few lines:
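Two replicates per condition were plated: chloramphenicol/ampicillin LB agar for the control, and chloramphenicol/ampicillin/kanamycin with 0.1 mM IPTG for selection. The pooled E. coli screen behind them paired targets with IS621 bridge RNA target-binding loops. Recombination efficiency is expressed from averaged, control-corrected barcode counts per million at recombinant junctions, as log10(CPM+1).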
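Note: IS621 recombinase and bridge RNA in Escherichia coli cells.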

Take “GAGCGCTCTTGGGTTCTAACCTGTTGCTG (site GAGCGCTCTCA)”: the “recombinant barcode read abundance (log10)” value was found to be 1.05. As for “GAGCGCTCTTGGGTTCTAACCTGTTGCTG (site GAGCGCTCTGA)”, the “recombinant barcode read abundance (log10)” value is 0.207. As for “GAGCGCTCTTGGGTTCTAACCTGTTGCTG (site GAGCGCTCTTA)”, the figure is 0.0132; as for “GAGCGGACTTGGGTTCTAACCTGTTGCTA (site GAGCGAGCTTA)”, 0.0384; as for “GAGCGGACTTGGGTTCTAACCTGTTGCTA (site GAGCGGACTTA)”, 1.83. For “GAGCGGCCTTGGGTTCTAACCTGTTGCAG (site ATTTAAGCTAG)” the value was 0.224. As for “GAGCGGCCTTGGGTTCTAACCTGTTGCAG (site GAGCGGCCTCT)”, the figure is 1.72; as for “GAGCTAGCTTGGGTTCTAACCTGTTGCGC (site GAGCTAGCTAC)”, 0.109; as for “GAGCTAGCTTGGGTTCTAACCTGTTGCGC (site GAGCTAGCTGC)”, 2.29. “GAGCTGCCTTGGGTTCTAACCTGTTGCCA (site AGCTAATCTAA)”: the “recombinant barcode read abundance (log10)” value came out at 0.274. For “GAGCTGCCTTGGGTTCTAACCTGTTGCCA (site GAGCTGCCTTG)”, the “recombinant barcode read abundance (log10)” value worked out at 1.66.

For the sequence “GAGCTTACTTGGGTTCTAACCTGTTGCCT (site GAGCTTACTAG)”, the “recombinant barcode read abundance (log10)” value was found to be 0.618. For “GAGCTTACTTGGGTTCTAACCTGTTGCCT (site GCGCTTACTAG)” the value was 0.0105; for “GAGCTTACTTGGGTTCTAACCTGTTGCCT (site GGGCTTACTAG)”, 0.299; for “GAGCTTACTTGGGTTCTAACCTGTTGCCT (site GTGCTTACTAG)”, 0.158.

“GAGGAACCTTGGGTTCTAACCTGTTGCCT (site AAGGAACCTAG)”: the “recombinant barcode read abundance (log10)” value turned out to be 1.57.

As for “GAGGAACCTTGGGTTCTAACCTGTTGCCT (site CAGGAACCTAG)”, the “recombinant barcode read abundance (log10)” value is 1.28. For “GAGGAACCTTGGGTTCTAACCTGTTGCCT (site GAGGAACCTAG)” the value was 2.12; for “GAGGAACCTTGGGTTCTAACCTGTTGCCT (site TAGGAACCTAG)”, 1.44; for “GAGGAAGCTTGGGTTCTAACCTGTTGCCT (site GAGGAAGCTAG)”, 1.81. For “GAGGAAGCTTGGGTTCTAACCTGTTGCCT (site GCGGAAGCTAG)”, the “recombinant barcode read abundance (log10)” value turned out to be 0.545. For “GAGGAAGCTTGGGTTCTAACCTGTTGCCT (site GGGGAAGCTAG)” the value was 0.316. In the case of “GAGGAAGCTTGGGTTCTAACCTGTTGCCT (site GTGGAAGCTAG)”, the “recombinant barcode read abundance (log10)” value was 0.473. As for “GAGGACTCTTGGGTTCTAACCTGTTGCCC (site GAGGACTCTAG)”, the “recombinant barcode read abundance (log10)” value was 2. Regarding “GAGGACTCTTGGGTTCTAACCTGTTGCCC (site GAGGACTCTCG)”, the “recombinant barcode read abundance (log10)” value was 0.136.

For the sequence “GAGGACTCTTGGGTTCTAACCTGTTGCCC (site GAGGACTCTGG)”, the “recombinant barcode read abundance (log10)” value is 2.39. Take “GAGGACTCTTGGGTTCTAACCTGTTGCCC (site GAGGACTCTTG)”: the “recombinant barcode read abundance (log10)” value came out at 0.682.

“GAGGAGTCTTGGGTTCTAACCTGTTGCCG (site AGAACACCTAA)”: the “recombinant barcode read abundance (log10)” value was 0.0129. On to “GAGGAGTCTTGGGTTCTAACCTGTTGCCG (site GAGGAGTCTCG)”, for which the “recombinant barcode read abundance (log10)” value worked out at 1.3. “GAGGAGTCTTGGGTTCTAACCTGTTGCCT (site GAGAAGTCTAG)”: the “recombinant barcode read abundance (log10)” value is 1.02. As to “GAGGAGTCTTGGGTTCTAACCTGTTGCCT (site GAGCAGTCTAG)”, the “recombinant barcode read abundance (log10)” value was 0.0568. As for “GAGGAGTCTTGGGTTCTAACCTGTTGCCT (site GAGGAGTCTAG)”, the figure is 2.55. Regarding “GAGGAGTCTTGGGTTCTAACCTGTTGCCT (site GAGTAGTCTAG)”, the “recombinant barcode read abundance (log10)” value came to 0.171. Take “GAGGATCCTTGGGTTCTAACCTGTTGCCT (site GAGGATCCTAG)”: the “recombinant barcode read abundance (log10)” value stood at 2.12.

Take “GAGGATCCTTGGGTTCTAACCTGTTGCCT (site GGGGATCCTAG)”: the “recombinant barcode read abundance (log10)” value amounted to 0.457.

Regarding “GAGGCAACTTGGGTTCTAACCTGTTGCTT (site CACGCAACTAA)”, the “recombinant barcode read abundance (log10)” value worked out at 0. For the sequence “GAGGCAACTTGGGTTCTAACCTGTTGCTT (site GAGGCAACTAA)”, the “recombinant barcode read abundance (log10)” value stood at 0.0561. As for “GAGGCTCCTTGGGTTCTAACCTGTTGCCG (site GAGGCTCCTAG)”, the figure is 0.113. As for “GAGGCTCCTTGGGTTCTAACCTGTTGCCG (site GAGGCTCCTCG)”, the figure is 0.993. Regarding “GAGGCTCCTTGGGTTCTAACCTGTTGCCG (site GAGGCTCCTGG)”, the “recombinant barcode read abundance (log10)” value was found to be 0.138. For “GAGGCTCCTTGGGTTCTAACCTGTTGCCG (site GAGGCTCCTTG)”, the “recombinant barcode read abundance (log10)” value was 0.238. On to “GAGGGTACTTGGGTTCTAACCTGTTGCCT (site GAGCATACTAG)”, for which the “recombinant barcode read abundance (log10)” value was 0.295. As for “GAGGGTACTTGGGTTCTAACCTGTTGCCT (site GAGGGTACTAG)”, the figure is 1.76.

“GAGGGTTCTTGGGTTCTAACCTGTTGCAT (site GAGGGTGCTAG)”: the “recombinant barcode read abundance (log10)” value is 0.528. On to “GAGGGTTCTTGGGTTCTAACCTGTTGCAT (site GAGGGTTCTAT)”, for which the “recombinant barcode read abundance (log10)” value is 2.66. For “GAGGTAGCTTGGGTTCTAACCTGTTGCCT (site GAGGTAGCTAG)” the value was 1.18; for “GAGGTAGCTTGGGTTCTAACCTGTTGCCT (site GATGTATCTAG)”, 0.563; for “GAGGTGCCTTGGGTTCTAACCTGTTGCAG (site ATAACCTCTAG)”, 0.174. For “GAGGTGCCTTGGGTTCTAACCTGTTGCAG (site GAGGTGCCTCT)” the value was 1.44; for “GAGTAGTCTTGGGTTCTAACCTGTTGCCT (site GAGAAGTCTAG)”, 0.0847. As for “GAGTAGTCTTGGGTTCTAACCTGTTGCCT (site GAGCAGTCTAG)”, the figure is 1.27; as for “GAGTAGTCTTGGGTTCTAACCTGTTGCCT (site GAGGAGTCTAG)”, 0.00957; as for “GAGTAGTCTTGGGTTCTAACCTGTTGCCT (site GAGTAGTCTAG)”, 2.39. As to “GAGTCTCCTTGGGTTCTAACCTGTTGCGG (site CTTCGGACTAA)”, the “recombinant barcode read abundance (log10)” value was determined as 0.187. As for “GAGTCTCCTTGGGTTCTAACCTGTTGCGG (site GAGTCTCCTCC)”, the figure is 0.316; as for “GAGTGAGCTTGGGTTCTAACCTGTTGCAT (site GAGAGAGCTAT)”, 0.645. For “GAGTGAGCTTGGGTTCTAACCTGTTGCAT (site GAGCGAGCTAT)” the value was 1.95; for “GAGTGAGCTTGGGTTCTAACCTGTTGCAT (site GAGGGAGCTAT)”, 0.986.

Regarding “GAGTGAGCTTGGGTTCTAACCTGTTGCAT (site GAGTGAGCTAT)”, the “recombinant barcode read abundance (log10)” value came out at 2.53. For “GAGTGAGCTTGGGTTCTAACCTGTTGCGT (site GAGCGATCTAC)” the value was 0.689; for “GAGTGAGCTTGGGTTCTAACCTGTTGCGT (site GAGTGAGCTAC)”, 3.

As for “GAGTGCTCTTGGGTTCTAACCTGTTGCGT (site GAGCGCTCTAG)”, the “recombinant barcode read abundance (log10)” value came out at 0.0262. As for “GAGTGCTCTTGGGTTCTAACCTGTTGCGT (site GAGTGCTCTAC)”, the figure is 2.29; as for “GAGTGGCCTTGGGTTCTAACCTGTTGCCT (site GAGTGGCCTAA)”, 0.316; as for “GAGTGGCCTTGGGTTCTAACCTGTTGCCT (site GAGTGGCCTAC)”, 0.121.

For “GAGTGGCCTTGGGTTCTAACCTGTTGCCT (site GAGTGGCCTAG)”, the “recombinant barcode read abundance (log10)” value was 0.346. For “GAGTGGCCTTGGGTTCTAACCTGTTGCCT (site GAGTGGCCTAT)” the value was 0.182; for “GAGTGGCCTTGGGTTCTAACCTGTTGCGA (site GAGTGGCCTTC)”, 2.02. Regarding “GAGTGGCCTTGGGTTCTAACCTGTTGCGA (site TCCGTATCTCT)”, the “recombinant barcode read abundance (log10)” value stood at 0.0392. For “GAGTGGCCTTGGGTTCTAACCTGTTGCGT (site GAGTGGCCTAA)”, the “recombinant barcode read abundance (log10)” value was found to be 0.314. For “GAGTGGCCTTGGGTTCTAACCTGTTGCGT (site GAGTGGCCTAC)” the value was 2.4. As for “GAGTGGCCTTGGGTTCTAACCTGTTGCGT (site GAGTGGCCTAG)”, the figure is 0.227; as for “GAGTGGCCTTGGGTTCTAACCTGTTGCGT (site GAGTGGCCTAT)”, 1.32; as for “GAGTTCCCTTGGGTTCTAACCTGTTGCCC (site ATTACTTCTAA)”, 0.0963. Regarding “GAGTTCCCTTGGGTTCTAACCTGTTGCCC (site GAGTTCCCTGG)”, the “recombinant barcode read abundance (log10)” value came out at 1.54.

With “GAGTTTCCTTGGGTTCTAACCTGTTGCGT (site GAGTTACCTAC)”, the “recombinant barcode read abundance (log10)” value is 0.142. For “GAGTTTCCTTGGGTTCTAACCTGTTGCGT (site GAGTTCCCTAC)” the value was 0.278.

Source of the values: the supplement of paper PMC11208160.
